Assay results taken from PMC7898037, “Improving mitochondria and ER stability helps eliminate upper motor neuron degeneration that occurs due to mSOD1 toxicity and TDP‐43 pathology” (Clinical and Translational Medicine, 2021).

Experiment: Weight of the mice
Format: in vivo
Design: Mean Diff. of weight, vehicle vs. NU-9: unit not given here
Details: for Mean weight (Mean 2): WT-UeGFP mice, in g (unit assumed); for Weight, Average: WT-UeGFP
Procedure: hSOD1^G93A‐UeGFP, prpTDP‐43^A315T‐UeGFP and WT‐UeGFP mice were weighed and the required NU‐9 dose per weight was calculated (20 or 100 mg/kg), which was administered once daily by oral gavage, starting at postnatal day (P)60 and continuing until P120. Animals from the untreated group received the vehicle (NMP and olive oil) only. For oral administration purposes, 20 ga × 38 mm plastic feeding tubes were used (Instech Laboratories, Inc). The gavage tip was inserted into the mouth directly over the tongue and into the pharynx. While observing the swallowing reflex, the tip was safely and smoothly slid into the esophagus. Once the administration was completed, the gavage tip was pulled straight out.
Behavior data were collected from hSOD1^G93A‐UeGFP and WT‐UeGFP mice (starting at P60 and every 7 days until P116) and from prpTDP‐43^A315T‐UeGFP mice (at P60, P90, and P120) with the following number of mice for each group: WT‐UeGFP vehicle (n = 10), hSOD1^G93A‐UeGFP vehicle (n = 6), WT‐UeGFP 20 mg/kg/day NU‐9 (n = 5), hSOD1^G93A‐UeGFP 20 mg/kg/day NU‐9 (n = 7), WT‐UeGFP 100 mg/kg/day NU‐9 (n = 11), hSOD1^G93A‐UeGFP 100 mg/kg/day NU‐9 (n = 9), prpTDP‐43^A315T‐UeGFP untreated (n ≥ 3), and prpTDP‐43^A315T‐UeGFP 100 mg/kg/day NU‐9 (n = 4) (Table S3).

Compound: C[C@H](Oc1cc(C(F)(F)F)cc(C(F)(F)F)c1)C1CC(=O)CC(=O)C1 [NU‐9]
- Mean Diff. of weight, vehicle vs. NU-9 (WT-UeGFP (vehicle) vs. WT-UeGFP (NU-9 20 mg/kg/day), P60, Tukey's multiple comparisons test): -0.6
- Mean Diff. of weight, vehicle vs. NU-9 (WT-UeGFP (vehicle) vs. WT-UeGFP (NU-9 20 mg/kg/day), P67, Tukey's multiple comparisons test): -1.3
- Mean Diff. of weight, vehicle vs. NU-9 (WT-UeGFP (vehicle) vs. WT-UeGFP (NU-9 20 mg/kg/day), P74, Tukey's multiple comparisons test): -0.9
- Mean Diff. of weight, vehicle vs. NU-9 (WT-UeGFP (vehicle) vs. WT-UeGFP (NU-9 20 mg/kg/day), P81, Tukey's multiple comparisons test): -0.5
- Mean Diff. of weight, vehicle vs. NU-9 (WT-UeGFP (vehicle) vs. WT-UeGFP (NU-9 20 mg/kg/day), P88, Tukey's multiple comparisons test): -0.1
- Mean Diff. of weight, vehicle vs. NU-9 (WT-UeGFP (vehicle) vs. WT-UeGFP (NU-9 20 mg/kg/day), P95, Tukey's multiple comparisons test): 0
- Mean Diff. of weight, vehicle vs. NU-9 (WT-UeGFP (vehicle) vs. WT-UeGFP (NU-9 20 mg/kg/day), P102, Tukey's multiple comparisons test): -0.2
- Mean Diff. of weight, vehicle vs. NU-9 (WT-UeGFP (vehicle) vs. WT-UeGFP (NU-9 20 mg/kg/day), P109, Tukey's multiple comparisons test): -1
- Mean Diff. of weight, vehicle vs. NU-9 (WT-UeGFP (vehicle) vs. WT-UeGFP (NU-9 20 mg/kg/day), P116, Tukey's multiple comparisons test): -1.267
- Mean Diff. of weight, vehicle vs. NU-9 (WT-UeGFP (vehicle) vs. WT-UeGFP (NU-9 100 mg/kg/day), P60, Tukey's multiple comparisons test): -0.01818
- Mean Diff. of weight, vehicle vs. NU-9 (WT-UeGFP (vehicle) vs. WT-UeGFP (NU-9 100 mg/kg/day), P67, Tukey's multiple comparisons test): -0.7545
- Mean Diff. of weight, vehicle vs. NU-9 (WT-UeGFP (vehicle) vs. WT-UeGFP (NU-9 100 mg/kg/day), P74, Tukey's multiple comparisons test): -0.2818
- Mean Diff. of weight, vehicle vs. NU-9 (WT-UeGFP (vehicle) vs. WT-UeGFP (NU-9 100 mg/kg/day), P81, Tukey's multiple comparisons test): -0.9364
- Mean Diff. of weight, vehicle vs. NU-9 (WT-UeGFP (vehicle) vs. WT-UeGFP (NU-9 100 mg/kg/day), P88, Tukey's multiple comparisons test): -0.2091
- Mean Diff. of weight, vehicle vs. NU-9 (WT-UeGFP (vehicle) vs. WT-UeGFP (NU-9 100 mg/kg/day), P95, Tukey's multiple comparisons test): -0.2
- Mean Diff. of weight, vehicle vs. NU-9 (WT-UeGFP (vehicle) vs. WT-UeGFP (NU-9 100 mg/kg/day), P102, Tukey's multiple comparisons test): -0.5636
- Mean Diff. of weight, vehicle vs. NU-9 (WT-UeGFP (vehicle) vs. WT-UeGFP (NU-9 100 mg/kg/day), P109, Tukey's multiple comparisons test): -0.2545
- Mean Diff. of weight, vehicle vs. NU-9 (WT-UeGFP (vehicle) vs. WT-UeGFP (NU-9 100 mg/kg/day), P116, Tukey's multiple comparisons test): -0.7576
- Mean weight (Mean 2) (NU-9 20 mg/kg/day, P60): 18.4
- Mean weight (Mean 2) (NU-9 20 mg/kg/day, P67): 19
- Mean weight (Mean 2) (NU-9 20 mg/kg/day, P74): 18.8
- Mean weight (Mean 2) (NU-9 20 mg/kg/day, P81): 18.2
- Mean weight (Mean 2) (NU-9 20 mg/kg/day, P88): 18.8
- Mean weight (Mean 2) (NU-9 20 mg/kg/day, P95): 18.8
- Mean weight (Mean 2) (NU-9 100 mg/kg/day, P60): 17.82
- Mean weight (Mean 2) (NU-9 100 mg/kg/day, P67): 18.45
- Mean weight (Mean 2) (NU-9 100 mg/kg/day, P74): 18.18
- Mean weight (Mean 2) (NU-9 100 mg/kg/day, P81): 18.64
- Mean weight (Mean 2) (NU-9 100 mg/kg/day, P88): 18.91
- Mean weight (Mean 2) (NU-9 100 mg/kg/day, P95): 19
- Weight, Average (NU-9 20 mg/kg/day po, P60): 18.4 g
- Weight, Average (NU-9 20 mg/kg/day po, P67): 19 g
- Weight, Average (NU-9 20 mg/kg/day po, P74): 18.8 g
- Weight, Average (NU-9 20 mg/kg/day po, P81): 18.2 g
- Weight, Average (NU-9 20 mg/kg/day po, P88): 18.8 g
- Weight, Average (NU-9 20 mg/kg/day po, P95): 18.8 g
- Weight, Average (NU-9 20 mg/kg/day po, P102): 19 g
- Weight, Average (NU-9 20 mg/kg/day po, P109): 20.2 g
- Weight, Average (NU-9 20 mg/kg/day po, P116): 20.6 g
- Weight, Average (NU-9 100 mg/kg/day po, P60): 17.8182 g
- Weight, Average (NU-9 100 mg/kg/day po, P67): 18.6 g
- Weight, Average (NU-9 100 mg/kg/day po, P74): 18.1 g
- Weight, Average (NU-9 100 mg/kg/day po, P81): 18.7 g
- Weight, Average (NU-9 100 mg/kg/day po, P88): 18.9 g
- Weight, Average (NU-9 100 mg/kg/day po, P95): 19 g
- Weight, Average (NU-9 100 mg/kg/day po, P102): 19.5 g
- Weight, Average (NU-9 100 mg/kg/day po, P109): 19.6 g
- Weight, Average (NU-9 100 mg/kg/day po, P116): 20.3 g
- Mean Diff. of weight, vehicle vs. NU-9 (hSOD1G93A-UeGFP (vehicle) vs. hSOD1G93A-UeGFP (NU-9 20 mg/kg/day), P60, Tukey's multiple comparisons test): 0.6667
- Mean Diff. of weight, vehicle vs. NU-9 (hSOD1G93A-UeGFP (vehicle) vs. hSOD1G93A-UeGFP (NU-9 20 mg/kg/day), P67, Tukey's multiple comparisons test): 0.6429
- Mean Diff. of weight, vehicle vs. NU-9 (hSOD1G93A-UeGFP (vehicle) vs. hSOD1G93A-UeGFP (NU-9 20 mg/kg/day), P74, Tukey's multiple comparisons test): 0.2381
- Mean Diff. of weight, vehicle vs. NU-9 (hSOD1G93A-UeGFP (vehicle) vs. hSOD1G93A-UeGFP (NU-9 20 mg/kg/day), P81, Tukey's multiple comparisons test): 0.5952
- Mean Diff. of weight, vehicle vs. NU-9 (hSOD1G93A-UeGFP (vehicle) vs. hSOD1G93A-UeGFP (NU-9 20 mg/kg/day), P88, Tukey's multiple comparisons test): 0.2857
- Mean Diff. of weight, vehicle vs. NU-9 (hSOD1G93A-UeGFP (vehicle) vs. hSOD1G93A-UeGFP (NU-9 20 mg/kg/day), P95, Tukey's multiple comparisons test): 0.7619
- Mean Diff. of weight, vehicle vs. NU-9 (hSOD1G93A-UeGFP (vehicle) vs. hSOD1G93A-UeGFP (NU-9 20 mg/kg/day), P102, Tukey's multiple comparisons test): 0.5714
- Mean Diff. of weight, vehicle vs. NU-9 (hSOD1G93A-UeGFP (vehicle) vs. hSOD1G93A-UeGFP (NU-9 20 mg/kg/day), P109, Tukey's multiple comparisons test): 0.4762
